Reference: patent US11541065B2, “Compositions and methods for treating brain injury” (UNM RAINFOREST INNOVATIONS, priority 2018, dated 2023)

Experiments:
[1] = test system: hyperhomocysteinemic rats subjected to MCAO; assay: CatWalk gait analysis after MCAO; type: in vivo, male Wistar rats; conditions: HHcy rats, 7 days after MCAO, NVP-AAM077 1.2 mg/kg
Method: All rats were subjected to a battery of behavioral tests on day 7 (CatWalk), day 8 (cylinder and rotarod tests) and day 9 (adhesive test) after MCAO to evaluate normal gait, motor coordination and sensory motor functions. Habituation and training (3 days) was performed for one week before MCAO. The first two trainings days were before osmotic pump implantation and the third training day was after pump implantation. An experienced observer blinded to the experimental conditions evaluated all behavioral parameters.
Catwalk: An automated quantitative gait analysis system (Catwalk XT 10.5, Noldus) was used to assess deficits in normal gait in the control, hyperhomocysteinemic and NVP-AAM077 treated hyperhomocysteinemic rats as described earlier (Parkkinen et a., 2013, Stroke Res Treat 2013:410972; Wang et al., 2008, J Cereb Blood Flow Metab 28:1936-50). Briefly, rats were trained to walk on a glass platform or walkway (1.3 m long and 90 mm wide) with a fluorescent light reflected internally in the glass floor as the rats cross the walkway, scattering at points where the paws touch the glass. […] The camera recorded three such complete or successful runs across the walkway and the average of the three runs is reported. An experienced observer, blinded to the experimental group, labeled each paw on the recorded video and paw-related parameters were analyzed. […]

ERK MAPK = ERK MAPK phosphorylation in WT and GluN2A-KO mouse neuron cultures (immunoblot); type: cell-based, mice; conditions: L-homocysteine 50 μM
Text: Primary cortical neuronal cultures were established from embryos obtained from pregnant Sprague Dawley female rats (16-17 day gestation) as previously described (Podder and Paul, 2009, J Neurochem 110:1095-1106; Poddar and Paul, 2013, J Neurochem 124: 558-570). Primary cortical neuronal cultures were also developed from pregnant wildtype or GluN2A-knockout mice (15-16 day gestation) using similar protocols. The cells were maintained in culture for 12-14 days prior to treatment with homocysteine. L-homocysteine (200 mM stock) was prepared by alkali hydrolysis of L-homocysteine thiolactone hydrochloride followed by neutralization with 2N HCL and maintained in 0.02 mM N-Tris(hydroxymethyl)methyl-2-aminoethanesulfonicd acid (TES) buffer pH 7.4 (Poddar et al., 2001, Circulation 103:2717-2723). For receptor stimulation neurons were treated with freshly prepared 50 μM of L-homocysteine in Hank's balanced salt solution (Podder and Paul, 2009, J Neurochem 110:1095-1106; Poddar and Paul, 2013, J Neurochem 124: 558-570) containing 50 μM of glycine (Lipton et al., 1997, Proc Natl Acad Sci USA 94:5923-5928). In a subset of culture plates, pharmacological inhibitors (NVP-AAM007) were added […] prior to homocysteine addition and maintained during homocysteine treatment. Cells were processed for immunoblotting or Hoechst DNA staining.
Equal protein from total cell lysates obtained from rat and mice neuronal cultures were resolved in 7.5% SDS-PAGE, and subjected to immunoblotting procedure as described earlier (Podder and Paul, 2009, J Neurochem 110:1095-1106). Blots were analyzed with antibodies as described in each experiment. All primary antibodies (anti-pERK, anti-ERK) and secondary-horse radish peroxidase conjugated antibody concentrations were used according to recommendations provided by the manufacturer. Signals from immune complexes in the blots were developed using West Pico supersignal chemiluminescence reagents and then captured on X-ray films. Densitometric analysis of the images was performed using the Image J software.
Embryos obtained from pregnant Sprague Dawley rats (16-17-day gestation) or wild type (WT) and GluN2A KO mice (15-16-day gestation) were used to establish primary cortical neuronal cultures as previously described (Poddar and Paul, 2009, J Neurochem 110:1095-1106; Poddar and Paul, 2013, J Neurochem 124:558-570; Poddar et al., 2017, J Neurochem 142:560-573). Neurons were grown on either (a) 35-mm culture dishes (MatTek Corp., Ashland, Mass.) coated overnight with poly-D-lysine (50 μg/ml) and laminin (10 μg/ml) for Ca^2+ imaging studies, (b) poly-D-lysine-coated 60 mm dishes (Corning BIOCOAT, Corning Inc., Corning, N.Y.) for biochemical studies, or (c) poly-D-lysine-coated 4-well culture slides (Corning BIOCOAT, Corning Inc., Corning, N.Y.) for cell death assay. Neurons were maintained in culture for 12-13 days before experiment. The cells were treated with freshly prepared L-homocysteine (50 μM) in Hank's balanced salt solution containing 50 μM of glycine (Lipton et al., 1997, Proceedings of the National Academy of Sciences of the United States of America 94:5923-5928; Poddar and Paul, 2009, J Neurochem 110:1095-1106; Poddar and Paul, 2013, J Neurochem 124:558-570; Poddar et al., 2017, J Neurochem 142:560-573) for the specified time periods. In a parallel series of experiments, cells were treated with glutamate (50 μM) for the specified time periods. Cells were then processed for live cell imaging, immunoblotting or cell death assay. […]

Structure (SMILES) | print position of the affected side ([1]; untreated HHcy 0.72±0.15) | print area of the affected forepaw ([1]; untreated HHcy 1.06±0.097) | ERK MAPK phosphorylation (ERK MAPK; neurons from GluN2A KO mice, 30 or 60 minutes) | ERK MAPK phosphorylation (ERK MAPK; neurons from GluN2A-KO mice, four hours) | ERK MAPK phosphorylation (ERK MAPK; neurons from WT mice, 30 or 60 minutes) | ERK MAPK phosphorylation (ERK MAPK; neurons from WT mice, four hours)
C[C@H](NC(c1cccc2[nH]c(=O)c(=O)[nH]c12)P(=O)(O)O)c1ccc(Br)cc1 (stereo partly drawn) [NVP-AAM077, ({[(1S)-1-(4-bromophenyl)ethyl]amino}-(2,3-dioxo-1,4-dihydroquinoxalin-5-yl)methyl)phosphonic acid] | 1.37±0.097 cm | 1.41±0.092 cm^2 | – | – | – | –
N[C@@H](CCS)C(=O)O [L-homocysteine] | – | – | fails to induce ERK MAPK phosphorylation | remains unchanged | sustained increase in ERK MAPK phosphorylation | significant increase in ERK MAPK phosphorylation
